{
  "source": "patent US20060094780A1",
  "about": "“Novel antibiotic compounds” (priority 2000, published 2006)",
  "type_in_all_cases": "cell-based",
  "key": {"[1]": {"tested_on": "Bacillus subtilis ATCC strain 6633", "assay": "filter paper disk / disc diffusion assay on Bacillus subtilis plate", "description": "The Bacillus subtilis ATCC strain 6633 was used at 9.2 mL of a log phase culture with […] per 200 mL of Luria-Bertani medium containing 1.5% (w/v) agar. The plate was incubated at 28° C. for 24 hours and the diameter of the clearing zone was measured. Dilutions of the extract and fractions from HPLC chromatography were tested in the same way. In some cases, fractions from the column were tested by evaporating them to dryness, redissolving in methanol and simply spotting 10 μL of the methanolic sample directly onto the bacteriological plate and proceeding as described."}, "[2]": {"tested_on": "Bacillus subtilis ATCC strain 6633", "assay": "NCCLS broth microdilution test, minimum inhibitory concentration", "settings": "for minimum inhibitory concentration / MIC: B. subtilis; for antimicrobial activity / potency (in words): against the target organism B. subtilis; for MIC: Bacillus subtilis, ATCC6633", "description": "Minimum inhibitory concentrations with Bacillus subtilis ATCC strain 6633 were determined using the National Committee for Clinical Laboratory Standards broth microdilution test (NCCLS, 2000. NCCLS Document M7-A5—Methods for Dilution Antimicrobial Susceptibility Tests for Bacteria that Grow Aerobically, Approved Standard—Fifth Edition). The test was standardised using penicillin G and gentamicin with Staphyloccous aureus ATCC strains 29213 and 25923 and Enterococcus faecalis ATCC strain 29212. Results of standardisation were assessed according to the NCCLS standards (NCCLS, 2000. NCCLS Document M100-S10(M7)—Performance Standards for Antimicrobial Susceptibility Testing; Tenth Informational Supplement (Aerobic Dilution). NCCLS, Wayne, Pa.)."}, "[3]": {"tested_on": "SP2/0—Ag8, a non-secreting mouse myeloma cell line", "assay": "mammalian cell growth, WST-1 proliferation assay", "settings": "concentrations up to 30 μg/mL, 19 hours at 37° C.", "description": "(§1) Effects on mammalian cell growth were determined by exposing cultures of two mammalian neoplastic cell lines (SP2/0—Ag8, a non-secreting mouse myeloma cell line derived from Balb/C mice, and NCl-H460, a human-derived […] lung carcinoma line) to fixed dilutions of the methanolic extract of N. triodiae or to fixed concentrations of fraction 23, (6) for 19 hours at 37° C. Cells were grown in wells of sterile 96-well tissue culture cluster plates by standard methods. Cell growth was estimated using the Cell Proliferation Reagent WST-1 (Roche Diagnostics) according to the manufacturer's instructions and proliferation data were compared with those from untreated control wells."}, "[4]": {"tested_on": "NCl-H460, a human-derived small cell lung carcinoma line", "assay": "mammalian cell growth, WST-1 proliferation assay", "settings": "concentrations up to 100 μg/mL, 19 hours at 37° C.", "description": "as §1"}, "[5]": {"settings": "unknown concentration and mass of the compound, disc diffusion assay"}},
  "data": [
    {"compound": "1(15),8(19)-trinervitadiene-3α,5α,18-triol 3,5,18-triacetate [Compound 10]", "values": [
      {"measurement": "clear zone diameter", "setting": "[1]; 5 μg of compound, disc diffusion assay", "result": 11, "unit": "mm"},
      {"measurement": "minimum inhibitory concentration", "setting": "[2]; broth microdilution, estimated", "result": "> 50", "unit": "µg/mL"},
      {"measurement": "antimicrobial activity / potency (in words)", "setting": "[2]", "result": "reduced but detectable antimicrobial activity"},
      {"measurement": "antimicrobial activity / potency (in words)", "setting": "[2]; listed as triacetate", "result": "active, albeit less potent than the diols or triol"}
    ]},
    {"compound": "C=C1CCC[C@H](C)CCC2=C(C)[C@@H]3[C@H]1C[C@@H](O)[C@]3(CO)[C@@H](O)C2", "note": "[Compound 6, 1(15),8(19)-trinervitadiene-3α,5α,18-triol]", "values": [
      {"measurement": "antimicrobial activity of extracts and HPLC fractions (in words)", "setting": "[1]; B. subtilis plate test", "result": "antimicrobial activity was detected"},
      {"measurement": "minimum inhibitory concentration", "setting": "[2]; as restated in the discussion", "result": "≤ 50", "unit": "parts per million"},
      {"measurement": "MIC", "setting": "[2]; broth microdilution, estimated", "result": "≤ 50", "unit": "µg/mL"},
      {"measurement": "antimicrobial activity / potency (in words)", "setting": "[2]", "result": "moderately good antimicrobial potency"},
      {"measurement": "inhibitory effect on proliferation of SP2/0 cells", "setting": "[3]", "result": "no detectable inhibitory effect"},
      {"measurement": "inhibitory effect on proliferation of NCl-H460 cells", "setting": "[4]", "result": "no detectable inhibitory effect"}
    ]},
    {"compound": "C=C1CCC[C@H](C)CCC2=C(C)[C@@H]3[C@H]1C[C@@H](O)[C@]3(C)[C@@H](O)C2", "note": "[Compound 7, 1(15),8(19)-trinervitadiene-3α,5α-diol]", "values": [
      {"measurement": "zone of inhibition at 5 µg/disc", "setting": "[1]; Bacillus subtilis, ATCC6633, 5 μg of compound, disc diffusion assay, read-out: clear zone diameter", "result": 7, "unit": "mm"},
      {"measurement": "MIC", "setting": "[2]; broth microdilution, estimated", "result": "≤ 50", "unit": "µg/mL"},
      {"measurement": "antimicrobial activity / potency (in words)", "setting": "[2]", "result": "reduced but detectable antimicrobial activity"}
    ]},
    {"compound": "C=C1CCC[C@H](C)CCC2=C(C)[C@@H]3[C@H]1C[C@@H](OC(C)=O)[C@]3(CO)[C@@H](O)C2", "note": "[Compound 8, 1(15),8(19)-trinervitadiene-3α,5α,18-triol 5-acetate]", "values": [
      {"measurement": "clear zone diameter", "setting": "[1]; [5]", "result": 15, "unit": "mm"},
      {"measurement": "MIC", "setting": "[2]; broth microdilution, estimated", "result": "> 50", "unit": "µg/mL"},
      {"measurement": "antimicrobial activity / potency (in words)", "setting": "[2]", "result": "reduced but detectable antimicrobial activity"},
      {"measurement": "antimicrobial activity / potency (in words)", "setting": "[2]; listed as monoacetate", "result": "active, albeit less potent than the diols or triol"}
    ]},
    {"compound": "CC1=C2CC[C@@H](C)CC/C=C(/C)[C@@H]3CC[C@@](C)([C@H]13)[C@@H](O)[C@@H]2O", "note": "[Compound 9, 1(15),8(9)-trinervitadiene-2β,3α-diol]", "values": [
      {"measurement": "clear zone diameter", "setting": "[1]; [5]", "result": 15, "unit": "mm"},
      {"measurement": "minimum inhibitory concentration", "setting": "[2]; as restated in the discussion", "result": "≤ 25", "unit": "parts per million"},
      {"measurement": "MIC", "setting": "[2]; broth microdilution, estimated", "result": "≤ 25", "unit": "µg/mL"},
      {"measurement": "antimicrobial potency relative to the triol (6) and diol (7)", "setting": "[2]; fold more potent", "result": "2-4 times"},
      {"measurement": "significant inhibitory activity as low as", "setting": "[2]; lowest concentration with significant inhibitory activity", "result": 12, "unit": "parts per million"}
    ]}
  ]
}
